From patent publication US12414958B2, “Medicament and use thereof for treating bacterial infections involving biofilm” (Debiopharm International S.A., priority 2019, dated 2025)

Experiments:
ATCC 43300 MRSA strain [1] = experiment: Induction of resistance studies, ex vivo bacterial exposure to 4×MIC (Example 1); type: cell-based, Staphylococcus aureus; conditions: ex vivo exposure to 4×MIC; single and combination therapy; 24h or 72h biofilm
Procedure: Two experimental settings were used in this study to evaluate the treatment efficacies against early (24h) and/or mature (72h) MRSA catheter formed biofilms. Briefly, mice were anaesthetised by an IP injection of about 120 μl a mix of ketamine (50 mg/kg) and xylazine (10 mg/kg) (4 mL ketamine+2 mL xylazine+10 mL saline). Flank on the right side was shaved and then disinfected by 3 consecutive applications of betadine. A cutaneous and then subcutaneous (SC) incisions of 0.2 cm were made under sterile conditions and a 1 cm segment of polyurethane catheter (Ref. No. ES-04730 Arrow international) cut into 2 longitudinal fragments was inserted SC (into the incision and then pushed further under the skin, about 2 cm away from the incision). The inoculation was done simultaneously by placing 50 μl of the bacterial culture onto the catheter (10^6 CFU of ATCC 43300 MRSA strain). The incision was stitched up and disinfected. The day of the infection was referred to as Day0 (D0). To ensure that the study was conducted in sterile conditions from the start to the end of the experiment, non-infected mice (sentinel group) were included. […] In both 24 h and 72h biofilm settings, two groups of infected non-treated animals (Vehicle controls) were evaluated for bacterial counts: at baseline (24h or D1 [for 24-h biofilm] and 72h or D3 [for 72-h biofilm] post infection, i.e. time points corresponding to treatments initiations) and at the termination of treatment duration (D6 [for 24-h biofilm] and D8 [for 72-h biofilm] post infection). Post treatment CFUs were counted on D6 or D8 and results were expressed as Log10 CFU/g of catheter (Mean±SEM). The limit of detection was determined as being 1 Log10 CFU/g of catheter. Changes of CFU/g of catheter (Δ Log10) from the baseline (D1 or D3 for 24-h and 72-h biofilm, respectively) and cure rates (corresponding to the percentage of mice without catheter-associated bacteria within a given treatment group) were also calculated. In vivo induction of antibiotic-resistant bacteria was analysed for all tested antibiotics.

MRSA 43300 = experiment: MIC of Debio 1452; type: cell-based; conditions: Staphylococcus aureus
ATCC 43300 MRSA strain [2] = experiment: In vivo murine model of catheter associated infection, 24 h and 72 h MRSA biofilms; design: species or system Staphylococcus aureus; conditions: for CR (%) cure rate: 5.5-day treatment, percentage of mice without catheter-associated bacteria
Procedure: Two experimental settings were used in this study to evaluate the treatment efficacies against early (24h) and/or mature (72h) MRSA catheter formed biofilms. Briefly, mice were anaesthetised by an IP injection of about 120 μl a mix of ketamine (50 mg/kg) and xylazine (10 mg/kg) (4 mL ketamine+2 mL xylazine+10 mL saline). Flank on the right side was shaved and then disinfected by 3 consecutive applications of betadine. A cutaneous and then subcutaneous (SC) incisions of 0.2 cm were made under sterile conditions and a 1 cm segment of polyurethane catheter (Ref. No. ES-04730 Arrow international) cut into 2 longitudinal fragments was inserted SC (into the incision and then pushed further under the skin, about 2 cm away from the incision). The inoculation was done simultaneously by placing 50 μl of the bacterial culture onto the catheter (10^6 CFU of ATCC 43300 MRSA strain). The incision was stitched up and disinfected. The day of the infection was referred to as Day0 (D0). To ensure that the study was conducted in sterile conditions from the start to the end of the experiment, non-infected mice (sentinel group) were included. Treatments started either on D1 or D3 post infection, corresponding to early (24h) or more mature (72h) catheter formed biofilms, respectively, and lasted for 5.5 days (D1-D6) or (D3-D8). In both 24 h and 72h biofilm settings, two groups of infected non-treated animals (Vehicle controls) were evaluated for bacterial counts: at baseline (24h or D1 [for 24-h biofilm] and 72h or D3 [for 72-h biofilm] post infection, i.e. time points corresponding to treatments initiations) and at the termination of treatment duration (D6 [for 24-h biofilm] and D8 [for 72-h biofilm] post infection). Post treatment CFUs were counted on D6 or D8 and results were expressed as Log10 CFU/g of catheter (Mean±SEM). The limit of detection was determined as being 1 Log10 CFU/g of catheter. Changes of CFU/g of catheter (Δ Log10) from the baseline (D1 or D3 for 24-h and 72-h biofilm, respectively) and cure rates (corresponding to the percentage of mice without catheter-associated bacteria within a given treatment group) were also calculated. In vivo induction of antibiotic-resistant bacteria was analysed for all tested antibiotics.
Antibiotics doses were selected according to the effective doses in animals, which approximated the therapeutic human equivalent doses (HED) (Table 1).
Mice received antibiotics on D1, D2, D3, D4, D5 and D6 (only one administration at D6) or D3, D4, D5, D6, D7 and D8 (only one administration at D8). All antibiotics were administered BID IP, except Debio 1450 BES and Vancomycin, which were respectively given PO and SC. Daptomycin was tested as a once daily regimen to avoid tolerability issues. The antibiotics daily dosing was performed with a 10-12 hours interval between the two administrations. For combination therapy, antibiotics were administered simultaneously every 10-12 hours (the time required between the injection of the first antibiotic and the injection of the second antibiotic was less than 30 seconds per mouse).
In each sub-study, animals were randomly assigned to the antibiotic therapies or vehicle controls groups. Dose volumes were calculated according to individual body weight of each animal.
After blood collection, animals were sacrificed by cervical dislocation following anaesthesia. Two fragments of catheter per mouse were collected and were used for bacterial enumeration after sonication. Each fragment of catheter was individually washed under aseptic conditions in an Eppendorf tube (3 successive washing steps with 300 μl sterile saline). After the last wash, the catheter was suspended in 1 mL sterile saline, put in an ultrasonic bath (Advantage Lab) for 3 minutes at room temperature before being vigorously vortexed in order to detach all adherent bacteria from the catheter. Several successive dilutions of this suspension (undiluted, 10-2, […]) were cultured onto Chapman agar plates for 48 h at 37° C. […]

SMILES | emergence of resistant mutants (ATCC 43300 MRSA strain [1]) | MIC (MRSA 43300; determined in-house) [µg/mL] | MIC (MRSA 43300; historical data from the Sponsor) [µg/mL] | Log10 CFU/g of catheter (D 6) Mean ± SEM (ATCC 43300 MRSA strain [2]; Biofilm (24 h), 5.5-day treatment (D1-D6), BALB/c mice, doses as in Table 2) | ΔLog10 CFU/g of catheter from (D 1) Mean ± SEM (ATCC 43300 MRSA strain [2]; Biofilm (24 h), 5.5-day treatment (D1-D6), change from baseline D 1, BALB/c mice) | CR (%) cure rate (ATCC 43300 MRSA strain [2]; Biofilm (24 h)) [%] | Log10 CFU/g of catheter (D 8) Mean ± SEM (ATCC 43300 MRSA strain [2]; Biofilm (72 h), 5.5-day treatment (D3-D8), BALB/c mice, doses as in Table 2) | ΔLog10 CFU/g of catheter from (D 3) Mean ± SEM (ATCC 43300 MRSA strain [2]; Biofilm (72 h), 5.5-day treatment (D3-D8), change from baseline D 3, BALB/c mice) | CR (%) cure rate (ATCC 43300 MRSA strain [2]; Biofilm (72 h)) [%]
Cc1c(CN(C)C(=O)/C=C/c2cnc3c(c2)CCC(=O)N3)oc2ccccc12 [Debio 1452, (E)-N-methyl-N-((3-methylbenzofuran-2-yl)methyl)-3-(7-oxo-5,6,7,8-tetrahydro-1,8-naphthyridin-3-yl) acrylamide] | no emergence of resistant mutants | 0.0625 | 0.008 |  |  |  |  |  | 
CN[C@H](CC(C)C)C(=O)N[C@H]1C(=O)N[C@@H](CC(N)=O)C(=O)N[C@H]2C(=O)N[C@H]3C(=O)N[C@H](C(=O)N[C@H](C(=O)O)c4cc(O)cc(O)c4-c4cc3ccc4O)[C@H](O)c3ccc(c(Cl)c3)Oc3cc2cc(c3O[C@@H]2O[C@H](CO)[C@@H](O)[C@H](O)[C@H]2O[C@H]2C[C@](C)(N)[C@H](O)[C@H](C)O2)Oc2ccc(cc2Cl)[C@H]1O [Vancomycin] | no emergence of resistant mutants |  |  | 5.08 ± 0.105 Log10 CFU/g of catheter | −1.59 ± 0.105 Log10 CFU/g of catheter | 0 | 4.84 ± 0.077 Log10 CFU/g of catheter | −1.94 ± 0.077 Log10 CFU/g of catheter | 0
